Measurements from patent US10660909B2, “Method for treating cancer using chemokine antagonists” (Syntrix Biosystems Inc., priority 2016, dated 2020).

What was measured:
[1] = test system: MDSCs isolated from blood of AOM/DSS-treated BALBc mice; assay: GROα-mediated MDSC migration (transwell, flow cytometry count); format: cell-based, mouse; details: SX-682 0.1, 1 and 10 μM; GROα (CXCL1) 100 ng/ml; 12 hours; FIG. 2
Description: Using the of method of Katoh, 2013, Cancer Cell, 24:631-44 (herein incorporated by reference), to induce and isolate MDSCs, male BALBc mice were given a single intraperitoneal injection of azoxymethane (AOM, 10 mg/kg). Seven days later, these mice were given 4 cycles of water and water containing 1.25% dextran sulfate sodium (DSS). One cycle consisted of providing mice with regular drinking water for 7 days, followed by 1.25% aqueous DSS for 7 days, followed by regular drinking water for 7 days. MDSCs were isolated from femurs and blood of AOM/DSS-treated BALBc mice using the Myeloid-Derived Suppressor Cell Isolation Kit (Miltenyi Biotec) after lysis of red blood cells (RBC) according to the manufacturer's instructions. GROα (CXCL1) was placed in the bottom chamber of a 24-well plate at a concentration of 100 ng/ml. MDSCs isolated from blood of AOM/DSS-treated BALBc mice were seeded at a density of 1×10^6/well in the upper chamber (3 m, BD Falcon). After incubation for 12 hours, migrated cells were quantified by flow cytometry using CountBright Absolute Counting Beads (Molecular Probes). […] The test concentrations of SX-682 were 0.1, 1 and 10 μM, and the DMSO concentration was ≤1%.

[2] = test system: 60 human tumor cell line panel; assay: NCI 60 human tumor cell line panel, SRB growth inhibition; format: cell-based
Description: The chemokine CXCL8 and its receptors CXCR1 and CXCR2 have been identified as important mediators of cellular proliferation for a number of tumor cell types. To validate the relationship between CXCR1 and CXCR2 receptor antagonism and inhibition of tumor cell proliferation, SX-682 was evaluated against the 60 human tumor cell line panel at five concentration levels (0.01, 0.1, 1, 10, 100 μM) as performed by the Developmental Therapeutics Program at the National Cancer Institute (Shoemaker, 2006, Nat Rev Cancer, 6:813-23).
The human tumor cell lines of the cancer screening panel were grown in RPMI 1640 medium containing 5% fetal bovine serum and 2 mM L-glutamine. Cells were inoculated into 96 well microtiter plates in 100 μL at plating densities ranging from 5,000 to 40,000 cells/well depending on the doubling time of individual cell lines. After cell inoculation, the microtiter plates were incubated at 37° C., 5% CO2, 95% air and 100% relative humidity for 24 h prior to addition of SX-682.
After 24 h, two plates of each cell line are fixed in situ with TCA, to represent a measurement of the cell population for each cell line at the time of drug addition (Tz). SX-682 was solubilized in dimethyl sulfoxide at 400-fold the desired final maximum test concentration and stored frozen prior to use. At the time of SX-682 addition, an aliquot of frozen concentrate was thawed and diluted to twice the desired final maximum test concentration with complete medium containing 50 μg/ml gentamicin. Additional four, 10-fold or ½ log serial dilutions are made to provide a total of five drug concentrations plus control. Aliquots of 100 μl of these different drug dilutions were added to the appropriate microtiter wells already containing 100 μl of medium, resulting in the required final drug concentrations.
Following drug addition, the plates were incubated for an additional 48 h at 37° C., 5% CO2, 95% air, and 100% relative humidity. For adherent cells, the assay was terminated by the addition of cold TCA. Cells were fixed in situ by the gentle addition of 50 μl of cold 50% (w/v) TCA (final concentration, 10% TCA) and incubated for 60 minutes at 4° C. The supernatant was discarded, and the plates were washed five times with tap water and air dried. Sulforhodamine B (SRB) solution (100 μl) at 0.4% (w/v) in 1% acetic acid was added to each well, and plates were incubated for 10 minutes at room temperature. After staining, unbound dye was removed by washing five times with 1% acetic acid and the plates were air dried. Bound stain was subsequently solubilized with 10 mM TRIS, and the absorbance was read on an automated plate reader at a wavelength of 515 nm. For suspension cells, the methodology is the same except that the assay was terminated by fixing settled cells at the bottom of the wells by gently adding 50 μl of 80% TCA (final concentration, […]). Using the seven absorbance measurements (time zero, (Tz), control growth, (C), and test growth in the presence of drug at the five concentration levels (Ti)), the percentage growth was calculated at each of the drug concentrations levels. Percentage growth inhibition was calculated as: (Ti−Tz)/(C−Tz)×100 for concentrations for which Ti>/=Tz (Ti−Tz)/Tz×100 for concentrations for which Ti<Tz.
Three dose response parameters were calculated for each experimental agent. […] The drug concentration resulting in total growth inhibition (TGI) is calculated from Ti=Tz. The LC50 (concentration of drug resulting in a 50% reduction in the measured protein at the end of the drug treatment as compared to that at the beginning) indicating a net loss of cells following treatment is calculated from (Ti−Tz)/Tz×100=−50. Values are calculated for each of these three parameters if the level of activity is reached; however, if the effect is not reached or is exceeded, the value for that parameter is expressed as greater or less than the maximum or minimum concentration tested.

[3] = test system: T11 mouse model of breast cancer; assay: T11 mouse model of breast cancer; format: in vivo; details: T11 mice; SX-682 oral via medicated feed ~10 mg/day/mouse; CP 50 mg/kg ip once weekly; 1-2 weeks; N=7; P<0.0001; FIG. 4
Text: The T11 model is a validated mouse model of breast cancer, which derives from the serial orthotopic transplantation of a murine breast tumor derived from a p53-null mouse into a syngeneic p53 competent recipient, and features sporadic, somatic K-Ras mutation (Herschkowitz, 2012, Proc Natl Acad Sci, 109:2778-83, herein incorporated by reference). Tumors from the T11 model display an RNA expression pattern characteristic of the human claudin-low disease, and are extremely aggressive, with the majority of untreated animals surviving less than 21 days from the time of enrollment in the therapy studies. Treatment regimens were started following tumor manifestation. SX-682 was given orally via medicated feed, at an approximate dose of 10 mg/day/mouse. In brief, the medicated feed was prepared by Research Diets (New Brunswick, N.J.) by incorporating 15.2 grams of SX-682 spray dried dispersion (as prepared in Formulation Example 1) into 1042 grams of standard rodent diet with 10% kcals from fat. The medicated feed was formed into pellets. Carboplatin (CP) was administered once weekly via intraperitoneal injection at a dose of 50 mg/kg. […] Mean±SE. *** P<0.0001 (linear regression).

[4] = test system: C3Tag mouse model of breast cancer; assay: C3Tag mouse model of breast cancer; format: in vivo; details: C3Tag mice; for median survival: SX-682 ~10 mg/day/mouse oral, CP 50 mg/kg ip weekly, up to 60 days, vehicle 18 days, FIG. 6
Text: The C31-T-antigen (C3Tag) mouse model is a validated model of human triple-negative basal cell breast cancer as shown by gene expression analysis (Maroulakou, 1994, Proc Natl Acad Sci, 91:11236-40, herein incorporated by reference). The expressed large T-antigen binds and inactivates the RB and p53 tumor suppressor genes, explaining why this model faithfully recapitulates human basal breast cancer, which also harbors RB and p53 inactivation. This model also has frequent K-Ras amplification and infrequent Ras mutations. Treatment regimens were started following tumor manifestation. SX-682 was given orally via medicated feed, at an approximate dose of 10 mg/day/mouse. Carboplatin (CP) was administered once weekly via intraperitoneal injection at a dose of 50 mg/kg.

[5] = test system: TRIA mouse model of melanoma; assay: TRIA mouse model of melanoma; format: in vivo; details: TRIA mice; SX-682 oral via medicated feed ~10 mg/day/mouse; CP 50 mg/kg ip once weekly; FIG. 7 and 8
Description: The Tyrosine-Hras/Ink/Arf null (TRIA) is a validated mouse model of melanoma features an immuno-competent autochthonous tumor; Ras events are in >70% of all melanomas, and ˜50% lose the INK4a/ARF locus which, with B-RAF mutations, is the most common lesion of this cancer (Sharpless, 2016, Cancer Cell 29:832-45). Treatment regimens were started following tumor manifestation. SX-682 was given orally via medicated feed, at an approximate dose of 10 mg/day/mouse. Carboplatin (CP) was administered once weekly via intraperitoneal injection at a dose of 50 mg/kg.

[6] = test system: B16-F10 mouse melanoma cells; assay: B16-F10 syngeneic mouse model of melanoma; format: in vivo; details: B16-F10 mice; SX-682 50 mg/kg twice daily oral; anti-PD-1 100 μg twice weekly ip; treatment from day 18; N=4-5; FIG. 9
Description: The B16-F10 mouse model is a validated model of melanoma, Overwijk, 2001, Curr Protoc Immunol, Chapter 20: Units 20-21 (herein incorporated by reference). It was used to evaluate the effect of SX-682 alone and in combination with anti-PD1 antibody. B16-F10 mouse melanoma cells were cultured, then mice were injected with 0.5×10^6 B16-F10 cells on day 0, and treatment was initiated on day 18. Mice were treated with vehicle (control), SX-682 alone (50 mg/kg twice daily, oral), anti-PD-1 alone (100 μg twice weekly, ip), or SX-682 in combination with anti-PD-1 (N=4-5 per cohort). SX-682 was used as a spray dried dispersion (Formulation Example 1), and was administered to mice via oral gavage as a suspension in 0.5% aq methylcellulose. […] Data and error bars are the mean±SE.

[7] = test system: Lewis lung carcinoma (LLC); assay: LLC syngeneic mouse model of lung cancer; format: in vivo; details: LLC mice; SX-682 50 mg/kg twice daily oral; anti-PD-1 100 μg twice weekly ip; treatment from day 18; N=5; FIG. 10
Description: The Lewis lung carcinoma (LLC) mouse model (Kellar, 2015, Biomed Res Int, 2015:621324, herein incorporated by reference) was used to evaluate the effect of SX-682 alone and in combination with anti-PD-1 antibody. LLC mouse […] cells were cultured, then mice were injected with 0.5×10^6 LLC cells on day 0, and on day 18 treatment was initiated. Mice were treated with vehicle (control), SX-682 alone (50 mg/kg twice daily, oral), anti-PD-1 alone (100 μg twice weekly, ip), or SX-682 in combination with anti-PD-1 (N=5 per cohort). SX-682 was used as a spray dried dispersion (Formulation Example 1), and was administered to mice via oral gavage as a suspension in 0.5% aq. methylcellulose. The results of this experiment can be seen in FIG. 10 and FIG. 11.

[8] = test system: Pten^pc−/−p53^pc−/−Smad4^pc−/− mouse prostate tumors; assay: Pten/p53/Smad4 triple knockout mouse model of castration resistant prostate cancer; format: in vivo; details: SX-682 50 mg/kg b.i.d. oral gavage; ICB 200 μg each anti-PD1 and anti-CTLA4 3×/week; 4-6 weeks; FIG. 12
Description: The genetically engineered Pten^pc−/−p53^pc−/−Smad4^pc−/− mouse is a prostate-specific PB promoter-driven (PB-Cre4) conditional triple knockout model (i.e., prostate-specific deletion of all three tumor suppressors, Pten, p53 and Smad4 occurs in the ‘prostate cancer’ or ‘pc’). […] SX-682 was used as a spray dried dispersion (Formulation Example 1), and was administered to mice via oral gavage as a suspension in 0.5% aq. methylcellulose. Treatment was continued for 4-6 weeks and prostate weights measured to determine tumor burden. […] Mean±SE.

Compound | inhibition of GROα-mediated MDSC migration [1] | proliferation of human tumor cells ([2]; 60 cell lines, 0.01, 0.1, 1, 10, 100 μM, 48 h, FIG. 3A-3I) | inhibition of tumor cell proliferation, renal cancer cell lines ([2]; 786-0, CAK-1, TK-10, RXF 393, UO-31, ACHN, SN12C, FIG. 3G) | inhibition of tumor cell proliferation, non-small cell lung cancer cell lines ([2]; A549, H226, H460, H23, H522, H322M, HOP-62, HOP-92, FIG. 3B) | inhibition of tumor cell proliferation, leukemia cell lines ([2]; CCRF-CEM, MOLT-4, HL-60, RPMI-8226, K-562, SR, 10^−8 to 10^−4 M, FIG. 3A) | inhibition of tumor cell proliferation, colon cancer cell lines ([2]; COLO 205, HCT-15, HCC-2998, KM12, HCT-116, SW-620, FIG. 3C) | inhibition of tumor cell proliferation, ovarian cancer cell lines ([2]; IBROV1, OVCAR-8, OVCAR-3, NCI/ADR-RES, OVCAR-5, SK-OV-3, FIG. 3F) | inhibition of tumor cell proliferation, melanoma cell lines ([2]; LOX IMVI, MDA-MB-435, SK-MEL-5, MALME-3M, SK-MEL-2, UACC-257, M14, SK-MEL-28, UACC-62, FIG. 3E) | inhibition of tumor cell proliferation, breast cancer cell lines ([2]; MCF7, BT-549, MDA-MB-231, T-47D, HS 578T, MDA-MB-468, FIG. 3I) | inhibition of tumor cell proliferation, prostate cancer cell lines ([2]; PC-3, DU-145, FIG. 3H) | inhibition of tumor cell proliferation, CNS cancer cell lines ([2]; SF-268, SNB-19, SF-295, SNB-75, SF-539, FIG. 3D) | tumor growth (tumor volume) [3] | tumor growth (tumor volume) ([4]; SX-682 oral via medicated feed ~10 mg/day/mouse, CP 50 mg/kg ip once weekly, 4-6 weeks, N=10-12, FIG. 5) | median survival [4] | tumor growth (tumor volume) [5] | tumor growth (tumor area) [6] | tumor growth (tumor area) [7] | tumor burden (prostate weight) [8]
O=C(Nc1ccc(F)cc1)c1cnc(SCc2cc(OC(F)(F)F)ccc2B(O)O)nc1 [SX-682] | effectively inhibit GROα-mediated MDSC migration in a dose-dependent manner | directly affect the proliferation of human tumor cells | direct inhibition of tumor cell proliferation | direct inhibition of tumor cell proliferation | direct inhibition of tumor cell proliferation | direct inhibition of tumor cell proliferation | direct inhibition of tumor cell proliferation | direct inhibition of tumor cell proliferation | direct inhibition of tumor cell proliferation | direct inhibition of tumor cell proliferation | direct inhibition of tumor cell proliferation | effective therapy for breast cancer | significantly reduced tumor growth as compared to untreated controls | 28 days | significantly slowed tumor growth comparable to CP alone | significantly slowed tumor growth | significantly slowed tumor growth | inhibited prostate cancer
N.N.O=C([O-])C1(C(=O)[O-])CCC1.[Pt+2] [carboplatin, reference compound] |  |  |  |  |  |  |  |  |  |  |  |  |  | 28 days |  |  |  | 
